According to the supplement of paper PMC11061612:

Tests used:
CHL-1 (Melanoma) = assay: Bliss excess, mean over the matrix (fraction); higher = more synergy
In short: (§1)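 Cell lines grown in DMEM/F12 or RPMI with 10% FBS were plated in 1536-well plates and held 24 hours at 37°C, 5% CO2 before 72 hours of exposure to two-drug dose matrices, with DMSO typically at 0.2%. CellTiter-Glo 2.0 luminescence gave viability, which was converted to inhibition. Vehicle wells were set to 0 and blank wells to 1. Combination Emax is the second-highest inhibition in the matrix, and Bliss excess is the observed combination effect minus the expected EA + EB − EA·EB, where EA and EB are the single-agent effects.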

[1] = system: HCC-44 (Lung Adenocarcinoma); assay: as above
In short: as §1

[2] = system: KYSE-70 (Esophageal Squamous Cell Carcinoma); assay: as above
In short: as §1

[3] = system: NCI-H1755 (Lung Adenocarcinoma); assay: as above
In short: as §1

[4] = system: RERF-LC-KJ (Lung Adenocarcinoma); assay: as above
In short: as §1

[5] = system: HCC-44 (Lung Adenocarcinoma); assay: combination Emax (second highest fraction inhibited in the dose matrix, 72 h); higher = more inhibition; extreme values may be limits of the assay
In short: as §1
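For Bliss excess, mean over the matrix in this document: after 72 h of two-drug dosing.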

| Structure (SMILES) | Bliss excess (CHL-1 (Melanoma)) | Bliss excess [1] | Bliss excess [2] | Bliss excess [3] | Bliss excess [4] | combination Emax [5] |
| --- | --- | --- | --- | --- | --- | --- |
| Cn1cnc2c(F)c(Nc3ccc(Br)cc3Cl)c(C(=O)NOCCO)cc21 [Selumetinib] + CC(C)n1c(=O)n(C)c2cnc3cc(F)c(-c4ccc(OCCCN5CCCCC5)nc4)cc3c21 [AZD1390] (first compound max 10 µM, 7x7, partner max 0.3 µM) | -0.0482 | -0.0225 | -0.0481 | 0.0153 | -0.0073 | 0.396 |
| COc1nnc2ccc(N3CCC(c4ccc(OCCN5CCN(C)C(=O)[C@H]5C)cc4)CC3)nn12 [AZD5153] + Cc1c2c(nn1C)CSCc1cc(n(C)n1)CSc1cc(c3ccccc3c1)OCCCc1c(C(=O)O)n(C)c3c-2c(Cl)ccc13 [AZD5991] (first compound max 1 µM, 7x7, partner max 1 µM) | 0.0613 | -0.0332 | -0.0652 | -0.0785 | 0.006 | 0.756 |
| CN(C)CCCOc1ccc(-c2ccc3ncc4c(c3c2)n(C2CCOCC2)c(=O)n4C)cn1 [AZD0156] + O=C(c1cc(Cc2n[nH]c(=O)c3ccccc23)ccc1F)N1CCN(C(=O)C2CC2)CC1 [Olaparib] (first compound max 3 µM, partner max 3 µM) | -0.0224 | 0.0947 | -0.0054 | -0.0055 | -0.0459 | 0.456 |
| CC(=O)c1c(C)c2cnc(Nc3ccc(N4CCNCC4)cn3)nc2n(C2CCCC2)c1=O [Palbociclib] + Cn1cnc2c(F)c(Nc3ccc(Br)cc3Cl)c(C(=O)NOCCO)cc21 [Selumetinib] (first compound max 10 µM, 7x7, partner max 10 µM) | -0.0342 | 0.0332 | -0.0096 | 0.0425 | -0.0208 | 0.426 |
| C[C@@H](c1ccc2nccn2c1)n1nnc2ncc(-c3cnn(C)c3)nc21 [Savolitinib] + Cc1c2c(nn1C)CSCc1cc(n(C)n1)CSc1cc(c3ccccc3c1)OCCCc1c(C(=O)O)n(C)c3c-2c(Cl)ccc13 [AZD5991] (first compound max 1 µM, 7x7, partner max 1 µM) | -0.023 | -0.0335 | -0.0339 | -0.0361 | 0.012 | 0.0929 |
| COc1nnc2ccc(N3CCC(c4ccc(OCCN5CCN(C)C(=O)[C@H]5C)cc4)CC3)nn12 [AZD5153] + CC1(C)CCC(CN2CCN(c3ccc(C(=O)NS(=O)(=O)c4ccc(NCC5CCOCC5)c([N+](=O)[O-])c4)c(Oc4cnc5[nH]ccc5c4)c3)CC2)=C(c2ccc(Cl)cc2)C1 [Venetoclax] (first compound max 1 µM, 7x7, partner max 1 µM) | -0.0297 | -0.0395 | -0.0793 | -0.0416 | -0.0146 | 0.615 |
| NC1(C(=O)N[C@@H](CCO)c2ccc(Cl)cc2)CCN(c2ncnc3[nH]ccc23)CC1 [Capivasertib] + COc1nnc2ccc(N3CCC(c4ccc(OCCN5CCN(C)C(=O)[C@H]5C)cc4)CC3)nn12 [AZD5153] (first compound max 10 µM, 7x7, partner max 1 µM) | 0.0143 | -0.0278 | -0.0109 | -0.0278 | -0.0437 | 0.704 |
| NC1(C(=O)N[C@@H](CCO)c2ccc(Cl)cc2)CCN(c2ncnc3[nH]ccc23)CC1 [Capivasertib] + Cn1cnc2c(F)c(Nc3ccc(Br)cc3Cl)c(C(=O)NOCCO)cc21 [Selumetinib] (first compound max 10 µM, 7x7, partner max 10 µM) | 0.0588 | 0.106 | -0.0073 | 0.0295 | 0.0517 | 0.824 |
| COc1nnc2ccc(N3CCC(c4ccc(OCCN5CCN(C)C(=O)[C@H]5C)cc4)CC3)nn12 [AZD5153] + C[C@@H]1COCCN1C2=NC(=NC(=C2)C3(CC3)[S@](=N)(=O)C)C4=C5C=CNC5=NC=C4 [AZD6738] (first compound max 1 µM, 7x7, partner max 10 µM) | -0.0569 | 0.0139 | -0.0358 | 0.0198 | 0.0393 | 0.726 |
| CC(=O)c1c(C)c2cnc(Nc3ccc(N4CCNCC4)cn3)nc2n(C2CCCC2)c1=O [Palbociclib] + Cc1c2c(nn1C)CSCc1cc(n(C)n1)CSc1cc(c3ccccc3c1)OCCCc1c(C(=O)O)n(C)c3c-2c(Cl)ccc13 [AZD5991] (first compound max 10 µM, 7x7, partner max 1 µM) | 0.0344 | -0.0224 | -0.0462 | -0.0188 | -0.0723 | 0.169 |
| CC(=O)c1c(C)c2cnc(Nc3ccc(N4CCNCC4)cn3)nc2n(C2CCCC2)c1=O [Palbociclib] + CC1(C)CCC(CN2CCN(c3ccc(C(=O)NS(=O)(=O)c4ccc(NCC5CCOCC5)c([N+](=O)[O-])c4)c(Oc4cnc5[nH]ccc5c4)c3)CC2)=C(c2ccc(Cl)cc2)C1 [Venetoclax] (first compound max 10 µM, 7x7, partner max 1 µM) | -0.0357 | -0.0374 | -0.0465 | 0.0337 | -0.0314 | 0.0628 |
| NC1(C(=O)N[C@@H](CCO)c2ccc(Cl)cc2)CCN(c2ncnc3[nH]ccc23)CC1 [Capivasertib] + CC(=O)c1c(C)c2cnc(Nc3ccc(N4CCNCC4)cn3)nc2n(C2CCCC2)c1=O [Palbociclib] (first compound max 10 µM, 7x7, partner max 10 µM) | -0.0082 | -0.0161 | 0.0188 | 0.0036 | 0.0307 | 0.641 |
| NC1(C(=O)N[C@@H](CCO)c2ccc(Cl)cc2)CCN(c2ncnc3[nH]ccc23)CC1 [Capivasertib] + CCN(CCO)CCCOc1ccc2c(Nc3cc(CC(=O)Nc4cccc(F)c4)[nH]n3)ncnc2c1 [AZD2811] (first compound max 10 µM, 7x7, partner max 1 µM) | -0.0092 | -0.0388 | -0.0902 | -0.0289 | -0.0135 | 0.663 |
| COc1cc2ncnc(Nc3ccc(F)c(Cl)c3)c2cc1OCCCN1CCOCC1 [Gefitinib] + CC(C)n1c(=O)n(C)c2cnc3cc(F)c(-c4ccc(OCCCN5CCCCC5)nc4)cc3c21 [AZD1390] (first compound max 10 µM, 7x7, partner max 0.3 µM) | -0.0472 | -0.0387 | -0.038 | -0.0854 | -0.0807 | 0.121 |
| NC1(C(=O)N[C@@H](CCO)c2ccc(Cl)cc2)CCN(c2ncnc3[nH]ccc23)CC1 [Capivasertib] + CC(C)n1c(=O)n(C)c2cnc3cc(F)c(-c4ccc(OCCCN5CCCCC5)nc4)cc3c21 [AZD1390] (first compound max 10 µM, 7x7, partner max 0.3 µM) | -0.0209 | -0.0359 | -0.063 | -0.0407 | -0.0017 | 0.602 |
| COc1nnc2ccc(N3CCC(c4ccc(OCCN5CCN(C)C(=O)[C@H]5C)cc4)CC3)nn12 [AZD5153] + Cn1cnc2c(F)c(Nc3ccc(Br)cc3Cl)c(C(=O)NOCCO)cc21 [Selumetinib] (first compound max 1 µM, 7x7, partner max 10 µM) | 0.0049 | 0.0636 | 0.0097 | 0.0053 | -0.113 | 0.728 |
| Cn1cnc2c(F)c(Nc3ccc(Br)cc3Cl)c(C(=O)NOCCO)cc21 [Selumetinib] + C=CCn1c(=O)c2cnc(Nc3ccc(N4CCN(C)CC4)cc3)nc2n1-c1cccc(C(C)(C)O)n1 [AZD1775] (first compound max 10 µM, partner max 1 µM) | -0.0386 | -0.0088 | -0.0339 | 0.0496 | -0.0044 | 0.64 |
| Cn1cnc2c(F)c(Nc3ccc(Br)cc3Cl)c(C(=O)NOCCO)cc21 [Selumetinib] + CCN(CCO)CCCOc1ccc2c(Nc3cc(CC(=O)Nc4cccc(F)c4)[nH]n3)ncnc2c1 [AZD2811] (first compound max 10 µM, 7x7, partner max 1 µM) | -0.0579 | 0.0067 | 0.0047 | 0.0386 | -0.003 | 0.528 |
| NC1(C(=O)N[C@@H](CCO)c2ccc(Cl)cc2)CCN(c2ncnc3[nH]ccc23)CC1 [Capivasertib] + C[C@@H]1COCCN1C2=NC(=NC(=C2)C3(CC3)[S@](=N)(=O)C)C4=C5C=CNC5=NC=C4 [AZD6738] (first compound max 10 µM, 7x7, partner max 10 µM) | -0.0329 | -0.0298 | -0.0691 | -0.0244 | -0.0722 | 0.661 |
| Cc1nc(Nc2ncc(C(=O)Nc3c(C)cccc3Cl)s2)cc(N2CCN(CCO)CC2)n1 [Dasatinib] + CC(=O)Nc1cccc(-n2c(=O)n(C3CC3)c(=O)c3c(Nc4ccc(I)cc4F)n(C)c(=O)c(C)c32)c1 [Trametinib] (first compound max 2 µM, 7x7, partner max 1 µM) | 0.0137 | 0.0359 | -0.0729 | -0.0052 | -0.0295 | 0.955 |
| COc1nnc2ccc(N3CCC(c4ccc(OCCN5CCN(C)C(=O)[C@H]5C)cc4)CC3)nn12 [AZD5153] + C=CCn1c(=O)c2cnc(Nc3ccc(N4CCN(C)CC4)cc3)nc2n1-c1cccc(C(C)(C)O)n1 [AZD1775] (first compound max 1 µM, partner max 1 µM) | -0.0434 | -0.0787 | -0.0519 | -0.0088 | -0.0224 | 0.63 |
| CC1(C)CCC(CN2CCN(c3ccc(C(=O)NS(=O)(=O)c4ccc(NCC5CCOCC5)c([N+](=O)[O-])c4)c(Oc4cnc5[nH]ccc5c4)c3)CC2)=C(c2ccc(Cl)cc2)C1 [Venetoclax] + C1CN(CCC1(C(=O)N[C@@H](CCO)C2=CC=C(C=C2)Cl)N)C3=NC=NC4=C3C=CN4 [Capivasertib] (first compound max 1 µM, 7x7, partner max 3 µM) | -0.0266 |  | -0.0102 | -0.034 | -0.0808 |  |
| CC1(C)CCC(CN2CCN(c3ccc(C(=O)NS(=O)(=O)c4ccc(NCC5CCOCC5)c([N+](=O)[O-])c4)c(Oc4cnc5[nH]ccc5c4)c3)CC2)=C(c2ccc(Cl)cc2)C1 [Venetoclax] + C[C@@H]1COCCN1C2=NC(=NC(=C2)C3(CC3)[S@](=N)(=O)C)C4=C5C=CNC5=NC=C4 [AZD6738] (first compound max 1 µM, 7x7, partner max 10 µM) | 0.0493 |  | -0.0447 | -0.0578 | -0.0036 |  |
| COc1cccc2c1C(=O)c1c(O)c3c(c(O)c1C2=O)C[C@@](O)(C(=O)CO)C[C@@H]3O[C@H]1C[C@H](N)[C@H](O)[C@H](C)O1 [Doxorubicin] + Cc1cc2ncnn2cc1Nc1ncc2c(n1)n(C1CCOCC1)c(=O)n2C [AZD7648] (first compound max 1 µM, 7x7, partner max 10 µM) | 0.002 |  | 0.0271 | 0.104 | 0.0113 |  |
